Source: patent US12225917B2 (priority 2017, dated 2025)
Where “and” joins values, the source holds several entries; their conditions need not be identical. Identical values can stand only once. Like-named read-outs stand apart in the source and are kept apart here.

Columns and labels:
[1] = test system: Clostridium Perfringens (type A strain EHE-NE36)
[2] = in vivo
Eimeria species = test system: Eimeria species; set-up: species or system commercial meat chickens; conditions: in vivo
[3] = General safety in broilers reared to market weight by histology (Example 8); type: in vivo, broiler chickens; conditions: histology D42
From the text: This study evaluates the safety of IRP001 chloride in broilers through examination of histology.
The objective of this study was to test the general safety of IRP001 chloride in broilers reared to market weight by examination of histology.
The experiment consisted of the following treatments (1 pen per treatment, Table 54).
Birds were kept in a pen having an area of 4×10=40 ft^2, with clean wood shavings as bedding with a thickness of approximately 4 inches. The pen had 5 feet high side walls with a bottom 1 ½ feet being of solid wood to prevent bird migration.
The temperature of the building was monitored. Environmental conditions during the trial (temperature) were appropriate (optimum) to the age of the animals. Illumination was provided by fluorescent bulbs placed above the pens. The diets were provided ad libitum in one tube-type feeder per pen. From D0 until D7, feed was also supplied on a tray placed on the litter of each pen. Water was provided ad libitum from one Plasson drinker per pen.
Standard floor pen management practices were used throughout the experiment. Animals and housing facilities were inspected twice daily, observing and recording the general health status, constant feed and water supply as well as temperature, removing all dead birds, and recognizing unexpected events. Birds found dead during the study were noted on the Daily Mortality Record, and were not replaced. Pen number, the date of mortality, sex, weight, and diagnosis were recorded.
Day of hatch male Cobb chicks were obtained and ten male broiler chicks were placed in each pen. Accountabilities of all test animals and any extra birds were recorded on animal disposition form. The birds were sexed at the hatchery. The breeder flock history and vaccination record at the hatchery were recorded. Bird weights by pen were recorded on D0 and 42.
All weights were by pen. Treatment Starter feed was fed from D0 to 21. On D21, non-consumed Starter was weighed by pen and discarded. Grower feed was issued and fed until D35. On D35, non-consumed Grower was weighed by pen and discarded. Finisher feed was fed until D42. On D42, non-consumed Finisher was weighed by pen and discarded.
On the day of study completion (D42), five birds from each pen were humanly euthanized and upper, mid and lower gut sections plus liver lobe were collected and stored in neutral buffered formalin. Theses samples were shipped for analysis.

[4] = Example 3: intestinal health scores based on Tierlynck et al. 2011 (dysbacteriosis, gross gut pathology); type: in vivo, commercial meat chickens; conditions: for Ballooning (total gut) score / Contents lower intestine score / Contents upper intestine score / Hyperaemia lower intestine score / Hyperaemia upper intestine score / Tonus lower intestine score / Tonus upper intestine score / Total Intestine health score (maximum 10) / Translucency lower intestine score / Translucency upper intestine score / Undigested particles in rectum score: reference feed: Salino, or Sal Zn Bac
From the text: […] General gut quality (looking for enteritis) was also visually assessed at that point.
This is a scoring system aimed at quantifying the level of dysbacteriosis present in a group of birds, attributing scores for certain grossly visible abnormalities. Higher total scores (maximum 10) reflect a higher level of dysbacteriosis, although this may be compromised if coccidiosis is present. For our purposes, the intestinal scores simply reflect gross gut pathology.

[5] = NE challenge, IVP 0.1 g/L In-water, Groups 7, 8
[6] = NE challenge, IVP 0.2 g/kg In-feed, Group 11
[7] = NE challenge, IVP 1.0 g/L In-water, Groups 9, 10
[8] = NE challenge, IVP 2.0 g/kg In-feed, Group 12
[9] = Necrotic Enteritis, IVP water 1.0 g/L, line 'Mean' of Groups 9 and 10
[10] = Necrotic Enteritis, IVP water 1.0 g/L, per isolator, Groups 9 and 10
[11] = Nil Challenge, IVP water 1.0 g/L, line 'Mean' of Groups 3 and 4
[12] = Nil Challenge, IVP water 1.0 g/L, per isolator, Groups 3 and 4
[13] = Nil challenge, IVP 1.0 g/L In-water, Groups 3, 4
[14] = broilers in a production environment

## COc1ccc2cc3[n+](cc2c1OC)CCc1cc2c(cc1-3)OCO2 [IRP001 chloride, berberine chloride]
[1]; [5]
  Median Duodenal Lesion Score (0 absent to 4 severe): 4
  Median Ilial Lesion Score (0 absent to 4 severe): 4
  Median Jejunal Lesion Score (0 absent to 4 severe): 4
[1]; [6]
  Median Duodenal Lesion Score (0 absent to 4 severe): 4
  Median Ilial Lesion Score (0 absent to 4 severe): 4
  Median Jejunal Lesion Score (0 absent to 4 severe): 4
[1]; [7]
  Median Duodenal Lesion Score (0 absent to 4 severe): 1
  Median Ilial Lesion Score (0 absent to 4 severe): 1
  Median Jejunal Lesion Score (0 absent to 4 severe): 1
[1]; [8]
  Median Duodenal Lesion Score (0 absent to 4 severe): 1
  Median Ilial Lesion Score (0 absent to 4 severe): 1
  Median Jejunal Lesion Score (0 absent to 4 severe): 1
[1]; Necrotic Enteritis, IVP feed 0.2 g/kg, Group 11
  Mortalities prior to autopsy: 9
[1]; Necrotic Enteritis, IVP feed 2 g/kg, Group 12
  Mortalities prior to autopsy: 2
[1]; Necrotic Enteritis, IVP water 0.1 g/L, per isolator, Groups 7 and 8, listed as IVP
  Mortalities prior to autopsy: 10
[1]; [9]
  Mortalities prior to autopsy: 0
  Mortality %: 0%
[1]; [10]
  Mortalities prior to autopsy: 0
  Mortality %: 0%
[1]; [11]
  Mortalities prior to autopsy: 0
  Mortality %: 0%
[1]; [12]
  Mortalities prior to autopsy: 0
  Mortality %: 0%
[1]; [13]
  Median Duodenal Lesion Score (0 absent to 4 severe): 0
  Median Ilial Lesion Score (0 absent to 4 severe): 0
  Median Jejunal Lesion Score (0 absent to 4 severe): 0
[2]
  Feed per bird over period 0-14 days: 485^B g/bird and 513^A g/bird and 512^A g/bird
  Feed per bird over period 0-21 days: 1186^B g/bird and 1227^AB g/bird and 1240^AB g/bird
  Feed per bird over period 0-28 days: 1957 g/bird and 2037 g/bird and 2049 g/bird
  Feed per bird over period 0-42 days: 4121 g/bird and 4247 g/bird and 4305 g/bird
  Mean Weight Gain over period 0-7 days: 113 gm and 121 gm and 119 gm
  Mean Weight Gain over period 8-14 days: 320^C gm and 334^A gm and 343^A gm
  Mean Weight Gain over period 15-21 days: 491^B gm and 517^A gm and 528^A gm
  Mean Weight Gain over period 22-28 days: 593 gm and 618 gm and 600 gm
  Mean Weight Gain over period 29-42 days: 1324 gm and 1341 gm and 1436 gm
  Mean live weight at 0 days: 41 gm
  Mean live weight at 7 days: 160 gm
  Mean live weight at 21 days: 923^C gm
  growth rates throughout the experiment: statistically similar to the control group
  live weight to the end of the experiment (day 42): remained significantly lighter than all other groups
  mean live weight at 14 days: significantly lower weights than the negative control
Eimeria species
  coccidiosis lesion scores in duodenum, jejunum and total gut: highest lesion scores
  oocyst counts in faeces: numerically lower than the controls
  total gut coccidiosis lesion scores: significantly reduced total gut lesion scores
[3]; [14]
  gastrointestinal tract (GIT) histologic lesions: within normal limits
  liver histologic lesions: within normal limits
[3]; versus control Treatment 1 Nil group
  Cumulative Pathology and Enteritis scores: equal or lower than the control
[4]; 21 days, higher two levels 0.3 and 0.1 g/kg, compared with controls and 0.03 g/kg
  translucency score in the upper intestine and undigested feed particles in the rectum: reduced translucency score in the upper intestine and the presence of undigested feed particles in the rectum
[4]; 28 days, 0.3 g/kg in feed, P=0.06
  total intestinal health scores compared with the controls: approached significance

## CC[C@@H](C(=O)[C@@H](C)[C@@H](O)[C@H](C)[C@@H]1O[C@@H]([C@@H](CC)C(=O)O)CC[C@@H]1C)[C@H]1O[C@]2(C=C[C@@H](O)[C@]3(CC[C@@](C)([C@H]4CC[C@](O)(CC)[C@H](C)O4)O3)O2)[C@H](C)C[C@@H]1C [salinomycin, Salinomycin]
[2]
  Feed per bird over period 0-14 days: 497^AB g/bird
  Feed per bird over period 0-21 days: 1193^B g/bird
  Feed per bird over period 0-28 days: 2074 g/bird
  Feed per bird over period 0-42 days: 4298 g/bird
  Mean Weight Gain over period 0-7 days: 116 gm
  Mean Weight Gain over period 8-14 days: 330^BC gm
  Mean Weight Gain over period 15-21 days: 517^A gm
  Mean Weight Gain over period 22-28 days: 645 gm
  Mean Weight Gain over period 29-42 days: 1384 gm
  Mean live weight at 0 days: 41 gm
  growth rates throughout the experiment: statistically similar to the control group
  mean live weight at 14 days: 446^AB gm
Eimeria species
  Faecal oocyst count, Log10 Mean: 4.72^B Log10 (Oocyst/g faeces)
  Faecal oocyst count, Mean: 72,046 Oocyst/g faeces
[4]; Age 21 days
  Ballooning (total gut) score: 0.10
  Contents lower intestine score: 0.45
  Contents upper intestine score: 0.65
  Hyperaemia lower intestine score: 0.00
  Hyperaemia upper intestine score: 0.15
  Tonus lower intestine score: 0.50
  Tonus upper intestine score: 0.50
  Total Intestine health score (maximum 10): 3.55
  Translucency lower intestine score: 0.85
  Translucency upper intestine score: 0.20^B
  Undigested particles in rectum score: 0.15^B
[4]; Age 28 days
  Ballooning (total gut) score: 0.80
  Contents lower intestine score: 0.00
  Contents upper intestine score: 1.00
  Hyperaemia lower intestine score: 0.20
  Hyperaemia upper intestine score: 0.80
  Tonus lower intestine score: 0.60
  Tonus upper intestine score: 0.80
  Total Intestine health score (maximum 10): 5.20
  Translucency lower intestine score: 0.20
  Translucency upper intestine score: 0.40
  Undigested particles in rectum score: 0.40
